This is an account of results in the supplement of paper PMC11208160.

The data set in a line: recombinant barcode read abundance after kanamycin selection (control-corrected) (log10(CPM+1)); higher = more efficient recombination; sequences stand for … in AGTGCAGAGAAAATCGGCCAGTTTTCTCTGCCTGCAGTCCGCATGCCGT…AGATTTATGCAGCGGACTGCCTTTCTCCCAAAGTGATAAACCGGACAGTATCATGGACCGGTTTTCCCGGTAATCCGTATTTGCAAGGTTGGTTTCACT; site = the 11-nt target. Summed up:
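Pooled oligos, each joining a target to an IS621 bridge RNA target-binding loop, were cloned and co-electroporated with a donor plasmid into E. coli. Selective plates carried chloramphenicol/ampicillin/kanamycin and 0.1 mM IPTG, while chloramphenicol/ampicillin LB agar served as control, with two replicates of each. Recombination efficiency rests on averaged, control-corrected counts per million of barcodes at recombinant junctions, shown as log10(CPM+1).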
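Also: IS621 recombinase and bridge RNA in Escherichia coli cells.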

In the case of “CAGGGGACTTGGGTTCTAACCTGTTGCAC (site TCCAACCCTAA)”, the “recombinant barcode read abundance (log10)” value was found to be 0.0666. As to “CAGGGTTCTTGGGTTCTAACCTGTTGCCT (site CAGGGTTCTAG)”, the “recombinant barcode read abundance (log10)” value was 2.18. Regarding “CAGGGTTCTTGGGTTCTAACCTGTTGCCT (site CCGGGTTCTAG)”, the “recombinant barcode read abundance (log10)” value amounted to 0.0396. Take “CAGGGTTCTTGGGTTCTAACCTGTTGCCT (site CGGGGTTCTAG)”: the “recombinant barcode read abundance (log10)” value is 0.12. Take “CAGGGTTCTTGGGTTCTAACCTGTTGCCT (site CTGGGTTCTAG)”: the “recombinant barcode read abundance (log10)” value is 0.21. Turning to “CAGGTACCTTGGGTTCTAACCTGTTGCAT (site CAGGTACCTAT)”, the “recombinant barcode read abundance (log10)” value stood at 3.14. Regarding “CAGGTACCTTGGGTTCTAACCTGTTGCAT (site CAGGTACCTCT)”, the “recombinant barcode read abundance (log10)” value came to 0.864.

In the case of “CAGGTCCCTTGGGTTCTAACCTGTTGCCG (site ATACGTTCTAT)”, the “recombinant barcode read abundance (log10)” value worked out at 0.102. Consider “CAGGTCCCTTGGGTTCTAACCTGTTGCCG (site CAGGTCCCTCG)”, for which the “recombinant barcode read abundance (log10)” value is 2.74. As to “CAGGTGACTTGGGTTCTAACCTGTTGCGG (site CAGGTGACTCC)”, the “recombinant barcode read abundance (log10)” value was 1.33. In the case of “CAGGTGACTTGGGTTCTAACCTGTTGCGG (site GGATATCCTAA)”, the “recombinant barcode read abundance (log10)” value stood at 0.0229. In the case of “CAGTACGCTTGGGTTCTAACCTGTTGCCT (site CAGCAAGCTAG)”, the “recombinant barcode read abundance (log10)” value stood at 0.31. On to “CAGTACGCTTGGGTTCTAACCTGTTGCCT (site CAGTACGCTAG)”, for which the “recombinant barcode read abundance (log10)” value worked out at 0.652. In the case of “CAGTATCCTTGGGTTCTAACCTGTTGCCT (site CAATATCCTAG)”, the “recombinant barcode read abundance (log10)” value turned out to be 0.867. In the case of “CAGTATCCTTGGGTTCTAACCTGTTGCCT (site CACTATCCTAG)” it was 0.0764; in that of “CAGTATCCTTGGGTTCTAACCTGTTGCCT (site CAGTATCCTAG)”, 0.945; in that of “CAGTATCCTTGGGTTCTAACCTGTTGCCT (site CATTATCCTAG)”, 0.096. Consider “CAGTGCTCTTGGGTTCTAACCTGTTGCCA (site CAATGCTCTAG)”, for which the “recombinant barcode read abundance (log10)” value came out at 0.648. Turning to “CAGTGCTCTTGGGTTCTAACCTGTTGCCA (site CAGTGCTCTTG)”, the “recombinant barcode read abundance (log10)” value was 1.52. The same measure for “CAGTGTCCTTGGGTTCTAACCTGTTGCCG (site CAGTGTCCTCG)”: 1.45. The same measure for “CAGTGTCCTTGGGTTCTAACCTGTTGCCG (site GAGCGTCCTCG)”: 0.122; for “CATAACCCTTGGGTTCTAACCTGTTGCAT (site ATCGGATCTCG)”: 0.0317. For “CATAACCCTTGGGTTCTAACCTGTTGCAT (site CATAACCCTAT)”, the “recombinant barcode read abundance (log10)” value was 1.84.

For the sequence “CATCAGCCTTGGGTTCTAACCTGTTGCCT (site CATAAGCCTAG)”, the “recombinant barcode read abundance (log10)” value worked out at 0.206. As to “CATCAGCCTTGGGTTCTAACCTGTTGCCT (site CATCAGCCTAG)”, the “recombinant barcode read abundance (log10)” value was found to be 0.547. As for “CATCAGCCTTGGGTTCTAACCTGTTGCCT (site CATGAGCCTAG)”, the “recombinant barcode read abundance (log10)” value was found to be 0.306. “CATCAGCCTTGGGTTCTAACCTGTTGCCT (site CATTAGCCTAG)”: the “recombinant barcode read abundance (log10)” value worked out at 0.0622. In the case of “CATCCGGCTTGGGTTCTAACCTGTTGCCT (site CATCCGACTAG)” it was 0.317; in that of “CATCCGGCTTGGGTTCTAACCTGTTGCCT (site CATCCGCCTAG)”, 0.0278; in that of “CATCCGGCTTGGGTTCTAACCTGTTGCCT (site CATCCGGCTAG)”, 0.434. On to “CATCCGGCTTGGGTTCTAACCTGTTGCCT (site CATCCGTCTAG)”, for which the “recombinant barcode read abundance (log10)” value was found to be 0.255. “CATCCGTCTTGGGTTCTAACCTGTTGCTT (site CATCCCTCTAA)”: the “recombinant barcode read abundance (log10)” value was 0.0222. “CATCCGTCTTGGGTTCTAACCTGTTGCTT (site CATCCGTCTAA)”: the “recombinant barcode read abundance (log10)” value amounted to 1.24. As to “CATCCTACTTGGGTTCTAACCTGTTGCAT (site CATCCTACTAT)”, the “recombinant barcode read abundance (log10)” value was determined as 0.665.

Take “CATCCTACTTGGGTTCTAACCTGTTGCAT (site CATCCTACTCG)”: the “recombinant barcode read abundance (log10)” value was found to be 0.0637.

Turning to “CATCCTACTTGGGTTCTAACCTGTTGCGG (site CATCCTACTCC)”, the “recombinant barcode read abundance (log10)” value came to 1.98.

As to “CATCCTACTTGGGTTCTAACCTGTTGCGG (site CATCCTCCTCA)”, the “recombinant barcode read abundance (log10)” value came out at 0.0136. Take “CATCGATCTTGGGTTCTAACCTGTTGCCT (site CATCGATCTAG)”: the “recombinant barcode read abundance (log10)” value came out at 0.558. Turning to “CATCGATCTTGGGTTCTAACCTGTTGCCT (site CATCTATCTAG)”, the “recombinant barcode read abundance (log10)” value was found to be 0. Take “CATCGCACTTGGGTTCTAACCTGTTGCCT (site CATCGCACTAG)”: the “recombinant barcode read abundance (log10)” value amounted to 0.0933. In the case of “CATCGCACTTGGGTTCTAACCTGTTGCCT (site CCTCGCACTAG)” it was 0.289. As for “CATCGCACTTGGGTTCTAACCTGTTGCCT (site CGTCGCACTAG)”, the “recombinant barcode read abundance (log10)” value turned out to be 0.153. For the sequence “CATCGCACTTGGGTTCTAACCTGTTGCCT (site CTTCGCACTAG)”, the “recombinant barcode read abundance (log10)” value came out at 0.184. “CATCGGACTTGGGTTCTAACCTGTTGCAG (site ACATAAGCTAG)”: the “recombinant barcode read abundance (log10)” value was 0.139. On to “CATCGGACTTGGGTTCTAACCTGTTGCAG (site CATCGGACTCT)”, for which the “recombinant barcode read abundance (log10)” value was found to be 1.48. As for “CATCGTACTTGGGTTCTAACCTGTTGCAT (site CATCGTACTAT)”, the “recombinant barcode read abundance (log10)” value was 0.00546. Turning to “CATCGTACTTGGGTTCTAACCTGTTGCAT (site CCTCGGACTAT)”, the “recombinant barcode read abundance (log10)” value is 0.0241. In the case of “CATCTACCTTGGGTTCTAACCTGTTGCGG (site CATCTACCTCC)” it was 1.39; in that of “CATCTACCTTGGGTTCTAACCTGTTGCGG (site TTGGATACTTG)”, 0.332. In the case of “CATCTATCTTGGGTTCTAACCTGTTGCCT (site CATCGATCTAG)” it was 0.353; in that of “CATCTATCTTGGGTTCTAACCTGTTGCCT (site CATCTATCTAG)”, 0.624.

Regarding “CATGACCCTTGGGTTCTAACCTGTTGCCT (site CAAGACCCTAG)”, the “recombinant barcode read abundance (log10)” value was 0.993. For “CATGACCCTTGGGTTCTAACCTGTTGCCT (site CACGACCCTAG)”, the “recombinant barcode read abundance (log10)” value came out at 0.774. Take “CATGACCCTTGGGTTCTAACCTGTTGCCT (site CAGGACCCTAG)”: the “recombinant barcode read abundance (log10)” value was 0.85.

On to “CATGACCCTTGGGTTCTAACCTGTTGCCT (site CATGACCCTAG)”, for which the “recombinant barcode read abundance (log10)” value was 1.67. For “CATGATACTTGGGTTCTAACCTGTTGCCT (site ATCTTGTCTCC)”, the “recombinant barcode read abundance (log10)” value was 0.0865. In the case of “CATGATACTTGGGTTCTAACCTGTTGCCT (site CATGATACTAG)” it was 0.922. For “CATGCCTCTTGGGTTCTAACCTGTTGCCG (site CATGCCTCTCG)”, the “recombinant barcode read abundance (log10)” value turned out to be 2.17. “CATGCCTCTTGGGTTCTAACCTGTTGCCG (site GCAAGTCCTAC)”: the “recombinant barcode read abundance (log10)” value was 0.227. In the case of “CATGCGACTTGGGTTCTAACCTGTTGCGT (site AGCATCCCTCA)” it was 0.234; in that of “CATGCGACTTGGGTTCTAACCTGTTGCGT (site CATGCGACTAC)”, 0.472; in that of “CATGCTACTTGGGTTCTAACCTGTTGCGT (site CATGCTACTAC)”, 0.41. As to “CATGCTACTTGGGTTCTAACCTGTTGCGT (site GATTCTACTAC)”, the “recombinant barcode read abundance (log10)” value came out at 0.0988.

“CATGTACCTTGGGTTCTAACCTGTTGCCT (site AATGTACCTAG)”: the “recombinant barcode read abundance (log10)” value was determined as 0.0837. In the case of “CATGTACCTTGGGTTCTAACCTGTTGCCT (site CATGTACCTAG)” it was 2.02; in that of “CATGTACCTTGGGTTCTAACCTGTTGCCT (site GATGTACCTAG)”, 0.145.

On to “CATGTACCTTGGGTTCTAACCTGTTGCCT (site TATGTACCTAG)”, for which the “recombinant barcode read abundance (log10)” value was 0.0813. In the case of “CATTAGACTTGGGTTCTAACCTGTTGCCT (site AATTAGACTAG)” it was 0.356; in that of “CATTAGACTTGGGTTCTAACCTGTTGCCT (site CATTAGACTAG)”, 0.423; in that of “CATTAGACTTGGGTTCTAACCTGTTGCCT (site GATTAGACTAG)”, 0.195. Turning to “CATTAGACTTGGGTTCTAACCTGTTGCCT (site TATTAGACTAG)”, the “recombinant barcode read abundance (log10)” value is 0.08.

For “CATTCAACTTGGGTTCTAACCTGTTGCCT (site CATTCAACTAG)”, the “recombinant barcode read abundance (log10)” value worked out at 0.133.

Consider “CATTCAACTTGGGTTCTAACCTGTTGCCT (site CATTCAACTCG)”, for which the “recombinant barcode read abundance (log10)” value stood at 0.115.

Consider “CATTTCACTTGGGTTCTAACCTGTTGCCT (site CATTTCACTAG)”, for which the “recombinant barcode read abundance (log10)” value came out at 0.379. As to “CATTTCACTTGGGTTCTAACCTGTTGCCT (site GCCCATGCTCC)”, the “recombinant barcode read abundance (log10)” value was 0.0522. In the case of “CATTTCCCTTGGGTTCTAACCTGTTGCTT (site CATTTCCCTAA)” it was 0.122; in that of “CATTTCCCTTGGGTTCTAACCTGTTGCTT (site CATTTCCCTAG)”, 0.246.
